Experimental data taken from patent US8822469B2, “Pyrrolo[2,3-B]pyrazines useful as inhibitors of ATR kinase” (Vertex Pharmaceuticals Incorporated, priority 2011, dated 2014).

Target: T1, full-length ATR (Homo sapiens, UniProt Q13535)
T1 construct: Assays were carried out at 25° C. in the presence of 5 nM full-length ATR
Assay: ATR Inhibition Assay (radioactive-phosphate incorporation)
Format: biochemical
Settings: Ki(app); 5 nM full-length ATR, 10 μM [γ-33P]ATP, 800 μM target peptide, 25° C.
Procedure: Compounds were screened for their ability to inhibit ATR kinase using a radioactive-phosphate incorporation assay. Assays were carried out in a mixture of 50 mM Tris/HCl (pH 7.5), 10 mM MgCl2 and 1 mM DTT. Final substrate concentrations were 10 μM [γ-33P]ATP (3mCi 33P ATP/mmol ATP, Perkin Elmer) and 800 μM target peptide (ASELPASQPQPFSAKKK).
Assays were carried out at 25° C. in the presence of 5 nM full-length ATR. An assay stock buffer solution was prepared containing all of the reagents listed above, with the exception of ATP and the test compound of interest. 13.5 μL of the stock solution was placed in a 96 well plate followed by addition of 2 μL of DMSO stock containing serial dilutions of the test compound (typically starting from a final concentration of 15 μM with 3-fold serial dilutions) in duplicate (final DMSO concentration 7%). The plate was pre-incubated for 10 minutes at 25° C. and the reaction initiated by addition of 15 μL [γ-33P]ATP (final concentration 10 μM).
The reaction was stopped after […] by the addition of 30 μL 0.1M phosphoric acid containing 2 mM ATP. A multiscreen phosphocellulose filter 96-well plate (Millipore, Cat no. MAPHN0B50) was pretreated with 100 μL 0.2M phosphoric acid prior to the addition of 45 μL of the stopped assay mixture. The plate was washed with 5×200 μL 0.2M phosphoric acid. After drying, 100 μL Optiphase ‘SuperMix’ liquid scintillation cocktail (Perkin Elmer) was added to the well prior to scintillation counting (1450 Microbeta Liquid Scintillation Counter, Wallac).
After removing mean background values for all of the data points, Ki(app) data were calculated from non-linear regression analysis of the initial rate data using the Prism software package (GraphPad Prism version 3.0cx for Macintosh, GraphPad Software, San Diego Calif., USA).

T1 sequence (Q13535 whole entry): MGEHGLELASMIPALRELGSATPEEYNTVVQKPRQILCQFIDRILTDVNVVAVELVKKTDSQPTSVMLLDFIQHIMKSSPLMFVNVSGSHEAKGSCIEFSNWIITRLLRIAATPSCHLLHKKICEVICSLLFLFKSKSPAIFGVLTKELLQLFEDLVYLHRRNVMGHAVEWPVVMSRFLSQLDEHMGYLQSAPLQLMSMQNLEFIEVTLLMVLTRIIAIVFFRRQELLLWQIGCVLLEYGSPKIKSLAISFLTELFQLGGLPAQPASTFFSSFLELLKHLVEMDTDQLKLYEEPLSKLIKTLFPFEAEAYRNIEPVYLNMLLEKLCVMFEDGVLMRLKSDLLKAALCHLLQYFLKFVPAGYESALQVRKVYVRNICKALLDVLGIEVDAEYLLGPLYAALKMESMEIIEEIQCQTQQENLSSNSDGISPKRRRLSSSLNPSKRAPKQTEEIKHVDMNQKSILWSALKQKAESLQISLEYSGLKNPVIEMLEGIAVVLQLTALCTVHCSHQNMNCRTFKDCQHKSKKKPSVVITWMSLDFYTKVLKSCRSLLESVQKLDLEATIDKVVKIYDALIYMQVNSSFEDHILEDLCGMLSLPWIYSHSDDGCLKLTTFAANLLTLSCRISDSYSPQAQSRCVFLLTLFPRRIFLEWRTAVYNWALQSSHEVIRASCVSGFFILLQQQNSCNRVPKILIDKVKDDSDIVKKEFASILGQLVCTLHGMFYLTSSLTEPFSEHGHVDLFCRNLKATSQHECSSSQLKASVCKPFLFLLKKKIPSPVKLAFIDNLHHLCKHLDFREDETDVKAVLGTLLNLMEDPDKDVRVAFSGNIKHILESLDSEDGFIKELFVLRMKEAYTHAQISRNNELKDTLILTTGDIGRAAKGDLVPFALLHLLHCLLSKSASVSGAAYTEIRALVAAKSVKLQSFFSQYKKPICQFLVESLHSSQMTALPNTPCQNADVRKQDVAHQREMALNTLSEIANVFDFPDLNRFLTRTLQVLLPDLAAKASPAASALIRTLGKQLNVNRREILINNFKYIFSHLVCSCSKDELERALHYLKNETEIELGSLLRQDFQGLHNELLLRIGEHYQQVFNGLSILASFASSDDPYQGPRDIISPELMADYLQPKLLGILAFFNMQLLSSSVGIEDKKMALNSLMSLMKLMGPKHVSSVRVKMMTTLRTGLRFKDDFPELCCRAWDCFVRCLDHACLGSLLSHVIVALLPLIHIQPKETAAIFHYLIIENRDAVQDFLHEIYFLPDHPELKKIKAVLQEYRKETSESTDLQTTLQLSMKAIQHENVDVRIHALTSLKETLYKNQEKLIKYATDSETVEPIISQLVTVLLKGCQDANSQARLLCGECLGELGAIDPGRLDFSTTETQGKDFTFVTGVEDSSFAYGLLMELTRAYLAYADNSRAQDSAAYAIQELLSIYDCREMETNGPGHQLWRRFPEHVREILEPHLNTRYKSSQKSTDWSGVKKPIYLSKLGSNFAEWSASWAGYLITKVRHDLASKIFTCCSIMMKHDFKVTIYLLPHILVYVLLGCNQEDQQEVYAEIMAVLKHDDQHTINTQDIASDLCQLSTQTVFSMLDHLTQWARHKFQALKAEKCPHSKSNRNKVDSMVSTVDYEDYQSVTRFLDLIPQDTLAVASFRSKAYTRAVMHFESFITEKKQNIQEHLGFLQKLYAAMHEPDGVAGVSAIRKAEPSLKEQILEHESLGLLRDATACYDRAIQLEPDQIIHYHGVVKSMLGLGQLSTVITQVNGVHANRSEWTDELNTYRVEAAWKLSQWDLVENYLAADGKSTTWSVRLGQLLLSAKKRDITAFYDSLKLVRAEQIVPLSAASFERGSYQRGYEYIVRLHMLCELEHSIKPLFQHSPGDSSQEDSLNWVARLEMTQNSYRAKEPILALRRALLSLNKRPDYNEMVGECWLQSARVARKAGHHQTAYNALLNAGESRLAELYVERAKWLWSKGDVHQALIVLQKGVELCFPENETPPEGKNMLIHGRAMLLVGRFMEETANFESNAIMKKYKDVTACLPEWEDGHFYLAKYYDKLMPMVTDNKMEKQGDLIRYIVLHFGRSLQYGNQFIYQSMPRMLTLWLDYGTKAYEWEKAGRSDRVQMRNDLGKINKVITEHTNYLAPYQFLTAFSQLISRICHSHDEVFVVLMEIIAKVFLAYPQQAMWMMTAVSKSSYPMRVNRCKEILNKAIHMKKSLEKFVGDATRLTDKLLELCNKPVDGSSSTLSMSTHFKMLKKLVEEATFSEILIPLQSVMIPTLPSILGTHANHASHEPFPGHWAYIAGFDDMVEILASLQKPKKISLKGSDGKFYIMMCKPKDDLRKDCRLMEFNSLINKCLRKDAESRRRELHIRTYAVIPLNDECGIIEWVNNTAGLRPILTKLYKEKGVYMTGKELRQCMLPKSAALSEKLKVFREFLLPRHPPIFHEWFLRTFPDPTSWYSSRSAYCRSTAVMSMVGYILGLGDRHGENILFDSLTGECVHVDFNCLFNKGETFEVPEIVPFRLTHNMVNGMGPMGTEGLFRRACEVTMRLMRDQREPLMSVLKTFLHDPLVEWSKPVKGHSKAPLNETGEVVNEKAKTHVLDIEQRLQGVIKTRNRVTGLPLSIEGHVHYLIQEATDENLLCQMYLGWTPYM

Compound	Ki [nM]	ATR Inhibition Ki
CC(C)S(=O)(=O)c1ccc(-c2cnc3[nH]cc(NC(=O)c4ccccc4)c3n2)cc1 [Compound I-1, N-(2-(4-(isopropylsulfonyl)phenyl)-5H-pyrrolo[2,3-b]pyrazin-7-yl)benzamide]	≤ 10	–
CC(C)S(=O)(=O)c1ccc(-c2cnc3[nH]cc(NC(=O)c4cccc(N)c4)c3n2)cc1 [Compound I-2, 3-amino-N-[2-(4-isopropylsulfonylphenyl)-5H-pyrrolo[2,3-b]pyrazin-7-yl]benzamide]	≤ 10	–
CC(C)S(=O)(=O)c1ccc(-c2cnc3[nH]cc(NC(=O)c4ccc(N)cc4)c3n2)cc1 [Compound I-3, 4-amino-N-[2-(4-isopropylsulfonylphenyl)-5H-pyrrolo[2,3-b]pyrazin-7-yl]benzamide]	10 to 100	–
CNCc1ccc(C(=O)Nc2c[nH]c3ncc(-c4ccc(S(=O)(=O)C(C)C)cc4)nc23)cc1 [Compound I-4, N-[2-(4-isopropylsulfonylphenyl)-5H-pyrrolo[2,3-b]pyrazin-7-yl]-4-(methylaminomethyl)benzamide]	≤ 10	–
CC(C)S(=O)(=O)c1ccc(-c2cnc3[nH]cc(NC(=O)c4ccc(CN[C@H]5CCOC5)cc4)c3n2)cc1 [Compound I-5, N-[2-(4-isopropylsulfonylphenyl)-5H-pyrrolo[2,3-b]pyrazin-7-yl]-4-[[[(3S)-tetrahydrofuran-3-yl]amino]methyl]benzamide]	≤ 10	–
CNCc1cccc(C(=O)Nc2c[nH]c3ncc(-c4ccc(S(=O)(=O)C(C)C)cc4)nc23)c1 [Compound I-6, N-[2-(4-isopropylsulfonylphenyl)-5H-pyrrolo[2,3-b]pyrazin-7-yl]-3-(methylaminomethyl)benzamide]	≤ 10	–
CC(C)S(=O)(=O)c1ccc(-c2cnc3[nH]cc(NC(=O)c4cccc(C(=O)O)c4)c3n2)cc1 [Compound I-7, 3-[[2-(4-isopropylsulfonylphenyl)-5H-pyrrolo[2,3-b]pyrazin-7-yl]carbamoyl]benzoic acid]	100 to 500	–
CC(CCO)S(=O)(=O)c1ccc(-c2cnc3[nH]cc(NC(=O)c4ccccc4)c3n2)cc1 (stereo not drawn) [Compound I-8]	≤ 10	–
CC(C)C(=O)Nc1c[nH]c2ncc(-c3ccc(S(=O)(=O)C(C)C)cc3)nc12 [Compound I-9, N-(2-(4-(isopropylsulfonyl)phenyl)-5H-pyrrolo[2,3-b]pyrazin-7-yl)isobutyramide]	100 to 500	–
CC(C)S(=O)(=O)c1ccc(-c2cnc3[nH]cc(NC(=O)Cc4ccccc4)c3n2)cc1 [Compound I-10, N-[2-(4-isopropylsulfonylphenyl)-5H-pyrrolo[2,3-b]pyrazin-7-yl]-2-phenyl-acetamide]	100 to 500	–
COc1ccccc1C(=O)Nc1c[nH]c2ncc(-c3ccc(S(=O)(=O)C(C)C)cc3)nc12 [Compound I-11, N-[2-(4-isopropylsulfonylphenyl)-5H-pyrrolo[2,3-b]pyrazin-7-yl]-2-methoxy-benzamide]	–	none
CC(C)S(=O)(=O)c1ccc(-c2cnc3[nH]cc(NC(=O)c4cccc(CN)c4)c3n2)cc1 [Compound I-12, 3-(aminomethyl)-N-[2-(4-isopropylsulfonylphenyl)-5H-pyrrolo[2,3-b]pyrazin-7-yl]benzamide]	10 to 100	–
CC(C)S(=O)(=O)c1ccc(-c2cnc3[nH]cc(NC(=O)c4cccc(Cl)c4)c3n2)cc1 [Compound I-13]	10 to 100	–
CC(C)S(=O)(=O)c1ccc(-c2cnc3[nH]cc(NC(=O)c4ccccc4O)c3n2)cc1 [Compound I-14, 2-hydroxy-N-(2-(4-(isopropylsulfonyl)phenyl)-5H-pyrrolo[2,3-b]pyrazin-7-yl)benzamide]	≤ 10	–
CC(C)S(=O)(=O)c1ccc(-c2cnc3[nH]cc(NC(=O)c4ccccc4F)c3n2)cc1 [Compound I-15, 2-fluoro-N-[2-(4-isopropylsulfonylphenyl)-5H-pyrrolo[2,3-b]pyrazin-7-yl]benzamide]	10 to 100	–
CC(C)S(=O)(=O)c1ccc(-c2cnc3[nH]cc(NC(=O)c4ccc(Cl)cc4)c3n2)cc1 [Compound I-16, 4-chloro-N-[2-(4-isopropylsulfonylphenyl)-5H-pyrrolo[2,3-b]pyrazin-7-yl]benzamide]	10 to 100	–
CC(C)S(=O)(=O)c1ccc(-c2cnc3[nH]cc(NC(=O)c4ccncc4)c3n2)cc1 [Compound I-17, N-[2-(4-isopropylsulfonylphenyl)-5H-pyrrolo[2,3-b]pyrazin-7-yl]pyridine-4-carboxamide]	10 to 100	–

Compound	Ki [nM]	ATR Inhibition Ki
CC(C)S(=O)(=O)c1ccc(-c2cnc3[nH]cc(NC(=O)c4ccc(O)cc4)c3n2)cc1 [Compound I-18, 4-hydroxy-N-[2-(4-isopropylsulfonylphenyl)-5H-pyrrolo[2,3-b]pyrazin-7-yl]benzamide]	≤ 10	–
CC(C)S(=O)(=O)c1ccc(-c2cnc3[nH]cc(NS(=O)(=O)c4ccccc4)c3n2)cc1 [Compound I-19]	100 to 500	–
CC(C)S(=O)(=O)c1ccc(-c2cnc3[nH]cc(NC(=O)c4ccc(N5CCC(N)CC5)cc4)c3n2)cc1 [Compound I-20, 4-(4-amino-1-piperidyl)-N-[2-(4-isopropylsulfonylphenyl)-5H-pyrrolo[2,3-b]pyrazin-7-yl]benzamide]	10 to 100	–
CC(C)S(=O)(=O)c1ccc(-c2cnc3[nH]cc(NC(=O)c4cccc(C5CNCCN5)c4)c3n2)cc1 (stereo not drawn) [Compound I-21, N-[2-(4-isopropylsulfonylphenyl)-5H-pyrrolo[2,3-b]pyrazin-7-yl]-3-piperazin-2-yl-benzamide]	10 to 100	–
CC(C)S(=O)(=O)c1ccc(-c2cnc3[nH]cc(NC(=O)c4ccc(N5CC[C@H](N)C5)cc4)c3n2)cc1 [Compound I-22, 4-[(3S)-3-aminopyrrolidin-1-yl]-N-[2-(4-isopropylsulfonylphenyl)-5H-pyrrolo[2,3-b]pyrazin-7-yl]benzamide]	≤ 10	–
CC(C)S(=O)(=O)c1ccc(-c2cnc3[nH]cc(NC(=O)c4ccc(N5CCC[C@@H](N)C5)cc4)c3n2)cc1 [Compound I-23, 4-[(3R)-3-amino-1-piperidyl]-N-[2-(4-isopropylsulfonylphenyl)-5H-pyrrolo[2,3-b]pyrazin-7-yl]benzamide]	≤ 10	–
CC(C)S(=O)(=O)c1ccc(-c2cnc3[nH]cc(NC(=O)c4ccc5c(c4)CNC5)c3n2)cc1 [Compound I-24, N-[2-(4-isopropylsulfonylphenyl)-5H-pyrrolo[2,3-b]pyrazin-7-yl]isoindoline-5-carboxamide]	≤ 10	–
CC(C)S(=O)(=O)c1ccc(-c2cnc3[nH]cc(NC(=O)c4ccc5c(c4)CNCC5)c3n2)cc1 [Compound I-25, N-[2-(4-isopropylsulfonylphenyl)-5H-pyrrolo[2,3-b]pyrazin-7-yl]-1,2,3,4-tetrahydroisoquinoline-7-carboxamide]	≤ 10	–
CC(C)S(=O)(=O)c1ccc(-c2cnc3[nH]cc(NC(=O)c4cc5c(s4)CCNC5)c3n2)cc1 [Compound I-26, N-[2-(4-isopropylsulfonylphenyl)-5H-pyrrolo[2,3-b]pyrazin-7-yl]-4,5,6,7-tetrahydrothieno[3,2-c]pyridine-2-carboxamide]	≤ 10	–
CC(C)S(=O)(=O)c1ccc(-c2cnc3[nH]cc(NC(=O)c4cc5c(s4)CNCC5)c3n2)cc1 [Compound I-27, N-[2-(4-isopropylsulfonylphenyl)-5H-pyrrolo[2,3-b]pyrazin-7-yl]-4,5,6,7-tetrahydrothieno[2,3-c]pyridine-2-carboxamide]	≤ 10	–
CC(C)S(=O)(=O)c1ccc(-c2cnc3[nH]cc(NC(=O)c4ccc(C5CCCN5)cc4)c3n2)cc1 (stereo not drawn) [Compound I-28, N-[2-(4-isopropylsulfonylphenyl)-5H-pyrrolo[2,3-b]pyrazin-7-yl]-4-pyrrolidin-2-yl-benzamide]	≤ 10	–
CC(C)S(=O)(=O)c1ccc(-c2cnc3[nH]cc(NC(=O)c4ccc(OCCN(C)C)cc4)c3n2)cc1 [Compound I-29, 4-(2-dimethylaminoethyloxy)-N-[2-(4-isopropylsulfonylphenyl)-5H-pyrrolo[2,3-b]pyrazin-7-yl]benzamide]	≤ 10	–
CC(C)S(=O)(=O)c1ccc(-c2cnc3[nH]cc(NC(=O)c4ccc(NC5CNC5)cc4)c3n2)cc1 [Compound I-30, 4-(azetidin-3-ylamino)-N-[2-(4-isopropylsulfonylphenyl)-5H-pyrrolo[2,3-b]pyrazin-7-yl]benzamide]	≤ 10	–
COc1cccc(C(=O)Nc2c[nH]c3ncc(-c4ccc(S(=O)(=O)C(C)C)cc4)nc23)n1 [Compound I-31, N-[2-(4-isopropylsulfonylphenyl)-5H-pyrrolo[2,3-b]pyrazin-7-yl]-6-methoxy-pyridine-2-carboxamide]	10 to 100	–
Cc1ccsc1C(=O)Nc1c[nH]c2ncc(-c3ccc(S(=O)(=O)C(C)C)cc3)nc12 [Compound I-32, N-[2-(4-isopropylsulfonylphenyl)-5H-pyrrolo[2,3-b]pyrazin-7-yl]-3-methyl-thiophene-2-carboxamide]	≤ 10	–
CC(C)S(=O)(=O)c1ccc(-c2cnc3[nH]cc(NC(=O)CC4CC4)c3n2)cc1 [Compound I-33, 2-cyclopropyl-N-[2-(4-isopropylsulfonylphenyl)-5H-pyrrolo[2,3-b]pyrazin-7-yl]acetamide]	10 to 100	–
